Molecules are shown by their SMILES.

Results on 9 molecules are retold here after paper PMC3366684, “Studies on the Synthesis of Derivatives of Marine-Derived Bostrycin and Their Structure-Activity Relationship against Tumor Cells” (Marine Drugs, 2012).

For one data set, the system named is A549 cells. The experiment in a line: MTT cytotoxicity assay, A549. Format: cell-based, human. The conditions noted are these: A549; human lung cancer cell line; MTT, 48 h exposure; mean ± SD, three independent experiments. As for the experimental part: (§1) All compounds were evaluated for their in vitro cytotoxic activity against five human cancer cell lines including human breast MCF-7, human breast MDA-MB-435, human lung A549, human liver HepG2 and human colon HCT-116, and compared with their effects on the immortalized human breast epithelial cell line MCF-10A by MTT assay using epirubicin (an anticancer drug used widely in the clinic) as positive control.
(§2) MCF-7, MDA-MB-435, A549, HepG2 and HCT-116 cells were cultured in Dulbecco’s modification Eagle’s medium (DMEM, Invitrogen, Carlsbad, CA, USA) supplemented with 10% fetal bovine serum (FBS, Hyclone, Logan, UT, USA), 2 mM L-glutamine, 100 μg/mL streptomycin and 100 U/mL penicillin (Invitrogen). MCF-10A cells were cultured in keratinocyte serum free medium (KSFM) supplemented with 0.1–0.2 ng/mL human recombinant epidermal growth factor and 20–30 μg/mL bovine pituitary extract (Invitrogen). The cells were incubated at 37 °C in a humidified atmosphere with 5% CO2.
(§3) Cells were harvested during logarithmic growth phase and seeded in 96-well plates at a density of 1 × 10^4 cells/mL, and cultured at 37 °C in a humidified incubator (5% CO2) for 24 h, followed by exposure to various concentrations of compounds tested for 48 h. Subsequently 20 μL of MTT (Genview, Houston, TX, USA) solution (5 mg/mL) was added to each well and mixed, the cells were then incubated for an additional 4 h. Culture supernatant was moved, 150 μL of DMSO (Sangon Biotech, Shanghai, China) was added to each well to fully dissolve the MTT-formazan crystals. Cell growth inhibition was determined by measuring the absorbance (Abs) at λ = 570 nm using a microplate reader and calculated according to the following equation:
(§4) Growth inhibition = (1 − OD of treated cells/OD of control cells) × 100%
(§5) The half maximal inhibitory concentrations (IC50) were obtained from liner regression analysis of the concentration-response curves plotted for each tested compound.

The next data set concerns MCF-7 cells. The data set can be described thus: MTT cytotoxicity assay, MCF-7. It is filed as cell-based, human. Conditions: MCF7; human breast cancer cell line; MTT, 48 h exposure; mean ± SD, three independent experiments. As for the experimental part:
as §1, §2, §3, §4, §5

The nature of data set [1]: MTT cytotoxicity assay, MCF-10A. It is filed as cell-based. Conditions: MCF-10A cells, immortalized human breast epithelial cell line, 48 h exposure, mean ± SD, three independent experiments. As for the experimental part:
as §1, §2, §3, §4, §5

The next data set relates to MDA-MB-435 cells. The experiment in a line: MTT cytotoxicity assay, MDA-MB-435. It is filed as cell-based, human. Conditions: MDA-MB-435; human breast cancer cell line; MTT, 48 h exposure; mean ± SD, three independent experiments. As to the method: as §1, §2, §3, §4, §5
The test system of another data set is HCT-116 cells. The data set can be described thus: MTT cytotoxicity assay, HCT-116. Format: cell-based, human. The conditions noted are these: HCT-116; human colon cancer cell line; MTT, 48 h exposure; mean ± SD, three independent experiments. As to the method:
as §1, §2, §3, §4, §5

The next data set has as its system HepG2 cells. The experiment in a line: MTT cytotoxicity assay, HepG2. The conditions noted are these: Homo sapiens, HepG2, 48 h, human liver cancer cell line; MTT, 48 h exposure; mean ± SD, three independent experiments. It is filed as cell-based, human. As for the experimental part:
as §1, §2, §3, §4, §5

In turn, `COC1=CC(=O)c2c(O)c3c(c(O)c2C1=O)C[C@]1(C)OC(C=C(C)C)O[C@@H]1[C@H]3O` (stereo partly shown) [Compound 6, 2,3-O-(3′-methylbut-2′-enyl) Bostrycin] displayed a melting point of 200 to 201 °C. Further, in the data set with A549 cells, the midpoint of inhibition, the IC50, lay at 5.5 ± 0.24 µM. The molecule also registered a half-maximal inhibitory concentration (IC50) with MCF-7 cells of 7.99 ± 0.09 µM. Also, the concentration for half-maximal inhibition (IC50) at 48 h in data set [1] is 34.1 ± 0.85 µM. Moreover, the 50% inhibitory concentration (IC50) with MDA-MB-435 cells worked out at 11.7 ± 1.18 µM. Half-maximal inhibition with HCT-116 cells (IC50) was put at 7.83 ± 0.32 µM. This molecule came in with an IC50 in the data set with HepG2 cells of 22.3 ± 2.89 µM.
In the case of `C[C@]1(O)Cc2c(O)c3c(c(O)c2[C@H](O)[C@H]1O)C(=O)C=C(N1CCCCC1)C3=O` [Compound 20, 6-(Piperidin-1-yl)-6-demethoxybostrycin], the melting point lay in the range of 199 to 200 °C. In the data set with A549 cells, this molecule gave an IC50 of 3.16 ± 0.23 µM. Also, in the data set with MCF-7 cells, the half-inhibitory concentration (IC50) was determined as 3.14 ± 0.31 µM. In the data set with MDA-MB-435 cells, this molecule returned a half-maximal inhibitory concentration (IC50) of 4.04 ± 0.35 µM. For the same molecule, the IC50 with HCT-116 cells stood at 2.81 ± 0.31 µM. In the data set on HepG2 cells, this molecule had a 50% inhibitory concentration (IC50) of 1.99 ± 0.17 µM.
Turning to `CC1CCN(C2=CC(=O)c3c(O)c4c(c(O)c3C2=O)C[C@](C)(O)[C@H](O)[C@H]4O)CC1` [Compound 21, 6-(4′-Methylpiperidin-1-yl)-6-demethoxybostrycin], the melting point is 162 to 163 °C. Besides, the IC50 with A549 cells was 3.06 ± 0.46 µM. In the data set with MCF-7 cells, 4.62 ± 0.44 µM corresponded to half-maximal inhibition (IC50). In the data set on MDA-MB-435 cells, this molecule gave an IC50 of 6.38 ± 0.47 µM. In the data set on HCT-116 cells, this molecule returned an IC50 of 3.25 ± 0.67 µM. In the data set with HepG2 cells, the IC50 was 6.09 ± 1.14 µM.
For `CC1SC2=C(SC1C)C(=O)c1c(O)c3c(c(O)c1C2=O)C[C@](C)(O)[C@H](O)[C@H]3O` (stereo partly shown) [Compound 29, 6,7-(Butan-2′,3′-yl-dithio)-6-demethoxybostrycin], the melting point lay within 146 to 147 °C. The half-inhibitory concentration (IC50) in the data set on A549 cells turned out to be 4.06 ± 0.35 µM. In the data set with MCF-7 cells, 3.18 ± 0.22 µM corresponded to half-maximal inhibition (IC50). Further, in the data set with MDA-MB-435 cells, half-maximal inhibition (IC50) required 0.55 ± 0.11 µM. The molecule also came in with an IC50 with HCT-116 cells of 0.73 ± 0.02 µM. In the data set on HepG2 cells, this molecule registered a half-inhibitory concentration (IC50) of 2.55 ± 0.55 µM.
Consider `CNC1=CC(=O)c2c(O)c3c(c(O)c2C1=O)C[C@](C)(O)[C@H](O)[C@H]3O` [Compound 9, 6-(Methylamino)-6-demethoxybostrycin], for which the IC50 with A549 cells is 31.1 ± 1.94 µM; with MCF-7 cells, 3.58 ± 0.65 µM; in the data set with MDA-MB-435 cells, above 50 µM; with HCT-116 cells it was 34.2 ± 1.27 µM; in the data set with HepG2 cells it was 22.4 ± 1.16 µM. This molecule yielded an IC50 at 48 h in data set [1] above 50 µM.
With `C[C@]1(O)Cc2c(O)c3c(c(O)c2[C@H](O)[C@H]1O)C(=O)C=C(N1CCC(c2ccccc2)CC1)C3=O` [Compound 22, 6-(4′-Phenylpiperidin-1-yl)-6-demethoxybostrycin], the melting point fell in the range of 221 to 222 °C. For the same molecule, the half-maximal inhibitory concentration (IC50) in the data set with A549 cells was found to be 0.76 ± 0.03 µM. The molecule also registered an IC50 with MCF-7 cells of 4.81 ± 0.4 µM. The same molecule registered a half-maximal inhibitory concentration (IC50) in the data set with MDA-MB-435 cells of 0.95 ± 0.13 µM. The molecule further yielded an IC50 in the data set with HCT-116 cells of 0.75 ± 0.05 µM. The midpoint of inhibition in the data set on HepG2 cells, the IC50, lay at 6.61 ± 1.12 µM.
With `C[C@]1(O)Cc2c(O)c3c(c(O)c2[C@H](O)[C@H]1O)C(=O)C(SCCO)=C(SCCO)C3=O` [Compound 26, 6,7-bis(2′-Hydroxyethylthio)-6-demethoxybostrycin], the melting point lay in the range of 156 to 158 °C. For the same molecule, the IC50 in the data set on A549 cells was 26.1 ± 3.15 µM. In addition, the concentration for half-maximal inhibition (IC50) in the data set on MCF-7 cells was determined as 14.4 ± 0.42 µM. The molecule also came in with an IC50 in the data set with MDA-MB-435 cells of 13.3 ± 0.2 µM. The same molecule yielded a half-inhibitory concentration (IC50) with HCT-116 cells of 12 ± 1.53 µM. For the same molecule, half-maximal inhibition with HepG2 cells (IC50) was put at 22.7 ± 1.95 µM.
The molecule `C[C@]1(O)Cc2c(O)c3c(c(O)c2[C@H](O)[C@H]1O)C(=O)C(SCCCO)=C(SCCCO)C3=O` [Compound 27, 6,7-bis(3′-Hydroxy-n-propylthio)-6-demethoxybostrycin] yielded a melting point of 150 to 151 °C. The molecule also returned a half-maximal inhibitory concentration (IC50) in the data set on A549 cells of 7.31 ± 0.58 µM. The same molecule registered an IC50 in the data set on MCF-7 cells of 6.01 ± 0.39 µM. For the same molecule, the half-maximal inhibitory concentration (IC50) in the data set with MDA-MB-435 cells came out at 3.19 ± 0.15 µM. This molecule also had a 50% inhibitory concentration (IC50) in the data set with HCT-116 cells of 3.08 ± 0.35 µM. In the data set on HepG2 cells, this molecule returned a half-maximal inhibitory concentration (IC50) of 3.18 ± 0.75 µM.
Regarding `COc1cccc2c1C(=O)c1c(O)c3c(c(O)c1C2=O)C[C@@](O)(C(=O)CO)C[C@@H]3O[C@H]1C[C@H](N)[C@@H](O)[C@H](C)O1` [epirubicin, reference compound], the half-inhibitory concentration (IC50) with A549 cells stood at 0.61 ± 0.05 µM; in the data set with MCF-7 cells, 0.96 ± 0.08 µM; in the data set with MDA-MB-435 cells it was 0.56 ± 0.06 µM; in the data set with HCT-116 cells, 0.48 ± 0.03 µM; in the data set with HepG2 cells it was 0.96 ± 0.02 µM. The same molecule showed a 50% inhibitory concentration (IC50) at 48 h in data set [1] of 0.48 ± 0.08 µM.
